Patent US20090306053A1, “Highly selective rho-kinase inhibitor” (priority 2005, published 2009)

Legend:
Type in all cases: biochemical
ROCKII (Rho-kinase) = ROCKII (Rho-kinase) (Homo sapiens, UniProt O75116); experiment: Rho-kinase (ROCKII) assay according to Patent Document 1; design: key to Realative Inhibitory Activity ROCKII: relative ratio; ROCKII-inhibiting activity defined as 1.0; details: for Realative Inhibitory Activity ROCKII: ROCKII-inhibiting activity defined as 1.0 (reference); for IC50: read-out: Kinase Inhibiting Activity (IC50) ROCKII
Chain of ROCKII (Rho-kinase) (O75116 whole entry, species assumed): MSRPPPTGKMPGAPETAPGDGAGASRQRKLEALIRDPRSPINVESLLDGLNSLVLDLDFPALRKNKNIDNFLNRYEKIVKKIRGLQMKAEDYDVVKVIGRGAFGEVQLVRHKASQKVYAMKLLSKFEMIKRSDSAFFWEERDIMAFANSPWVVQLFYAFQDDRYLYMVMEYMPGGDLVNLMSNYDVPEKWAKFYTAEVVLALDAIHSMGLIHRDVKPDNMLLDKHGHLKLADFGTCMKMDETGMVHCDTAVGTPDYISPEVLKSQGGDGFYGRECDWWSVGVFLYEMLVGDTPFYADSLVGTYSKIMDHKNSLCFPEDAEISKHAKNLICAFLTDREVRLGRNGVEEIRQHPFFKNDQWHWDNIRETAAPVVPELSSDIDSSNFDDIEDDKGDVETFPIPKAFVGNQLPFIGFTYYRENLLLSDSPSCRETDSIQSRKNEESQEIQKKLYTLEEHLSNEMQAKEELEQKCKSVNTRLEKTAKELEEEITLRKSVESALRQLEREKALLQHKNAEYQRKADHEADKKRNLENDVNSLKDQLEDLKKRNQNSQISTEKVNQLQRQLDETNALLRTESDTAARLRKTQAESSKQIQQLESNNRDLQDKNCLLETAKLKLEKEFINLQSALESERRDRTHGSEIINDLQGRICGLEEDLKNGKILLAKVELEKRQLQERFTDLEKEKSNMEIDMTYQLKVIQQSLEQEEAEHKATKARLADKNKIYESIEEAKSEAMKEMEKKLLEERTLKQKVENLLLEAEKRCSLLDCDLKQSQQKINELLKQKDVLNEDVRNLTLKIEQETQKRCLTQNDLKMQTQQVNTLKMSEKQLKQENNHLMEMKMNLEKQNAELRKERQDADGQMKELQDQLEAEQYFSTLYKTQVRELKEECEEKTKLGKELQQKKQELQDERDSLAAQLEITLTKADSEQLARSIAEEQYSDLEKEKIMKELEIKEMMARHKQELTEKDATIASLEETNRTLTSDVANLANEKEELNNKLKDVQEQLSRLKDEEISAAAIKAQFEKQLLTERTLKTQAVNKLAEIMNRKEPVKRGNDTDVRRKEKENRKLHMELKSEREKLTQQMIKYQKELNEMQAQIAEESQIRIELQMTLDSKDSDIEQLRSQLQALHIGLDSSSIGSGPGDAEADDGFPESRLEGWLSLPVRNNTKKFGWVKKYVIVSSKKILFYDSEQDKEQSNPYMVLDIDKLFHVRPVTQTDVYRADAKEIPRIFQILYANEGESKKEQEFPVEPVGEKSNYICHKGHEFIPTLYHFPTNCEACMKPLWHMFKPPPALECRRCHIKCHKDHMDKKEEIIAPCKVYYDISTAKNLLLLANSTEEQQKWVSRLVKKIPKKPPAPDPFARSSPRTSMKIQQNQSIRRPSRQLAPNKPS
Method: An Rho-kinase assay was carried out according to the method described in Patent Document 1, and the concentration of a compound for inhibiting Rho-kinase activity by 50% (hereinafter referred to as “IC50 value”) was calculated.
(§1) The ROCKII-inhibiting activity of a compound to be tested was defined as 1.0, and the inhibitory activities of the compound against kinases (PKA, PKG, CaMKII, and AuroraA) other than ROCKII were calculated as relative ratios to the ROCKII-inhibiting activity, based on the IC50 values calculated using the above-described evaluation system.

Purified bovine PKGα = biological target: T1, Purified bovine PKGα (Bos taurus, UniProt P00516); experiment: PKG kinase assay (Kinase-Glo ATP consumption); details: for IC50: 1 μM ATP, read-out: Kinase Inhibiting Activity (IC50) PKG; for Realative Inhibitory Activity PKG: relative ratio to ROCKII (=1.0), based on IC50 values
T1 construct: Purified bovine PKGα (Promega); purchased Promega
T1 sequence (P00516 1-671): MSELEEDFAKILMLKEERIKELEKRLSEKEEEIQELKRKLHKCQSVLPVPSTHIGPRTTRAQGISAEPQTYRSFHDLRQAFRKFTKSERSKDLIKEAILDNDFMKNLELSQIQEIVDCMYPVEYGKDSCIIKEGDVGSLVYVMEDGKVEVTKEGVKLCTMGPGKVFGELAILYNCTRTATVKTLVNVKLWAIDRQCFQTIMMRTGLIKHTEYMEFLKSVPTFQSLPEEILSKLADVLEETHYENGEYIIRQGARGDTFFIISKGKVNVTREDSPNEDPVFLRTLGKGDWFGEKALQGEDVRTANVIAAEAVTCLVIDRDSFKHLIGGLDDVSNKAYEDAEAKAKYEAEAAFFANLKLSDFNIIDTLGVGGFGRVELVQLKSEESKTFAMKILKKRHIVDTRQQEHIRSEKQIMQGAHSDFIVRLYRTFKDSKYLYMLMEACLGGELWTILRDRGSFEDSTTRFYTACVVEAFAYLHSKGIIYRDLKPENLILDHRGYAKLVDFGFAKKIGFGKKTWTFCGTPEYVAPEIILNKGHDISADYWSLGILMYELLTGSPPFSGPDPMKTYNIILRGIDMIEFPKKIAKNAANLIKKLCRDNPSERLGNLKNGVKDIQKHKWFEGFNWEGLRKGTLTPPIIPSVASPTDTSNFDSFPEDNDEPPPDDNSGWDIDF
Method: Purified bovine PKGα (Promega) was used to evaluate its activity to phosphorylate a substrate peptide (RKISASEF, Promega).
(§2) In a system of the total volume of 50 μL, the reaction of the above-mentioned enzyme (64 ng) was carried out at room temperature for 80 minutes in the presence of 40 mM of Tris-HCl (pH 7.5), 20 mM of magnesium chloride, 10 μM of cGMP (Sigma), 100 μM of the above peptide, and 1 μM of ATP. After the kinase reaction, the luminescence intensity corresponding to the amount of ATP in the reaction system was measured using a luciferase reagent (Kinase-Glo Luminescent Kinase Assay kit, Promega) with a chemiluminescence measurement apparatus (MicroLumat, Berthold Technologies). The amount of ATP consumed by the phosphorylation reaction was calculated by comparison with the luminescence intensity in the system when the kinase reaction was not carried out.
(§3) With this system, the kinase reaction was carried out in the presence of a compound at various concentrations, and the IC50 value of the compound was determined based on the resulting compound concentration-response curve for ATP consumption.
as §1

[1] = biological target: T2, Purified bovine PKA (catalyst subunit) (Bos taurus, UniProt P00517); experiment: PKA kinase assay (Kinase-Glo ATP consumption); details: for IC50: 1 μM ATP, read-out: Kinase Inhibiting Activity (IC50) PKA; for Realative Inhibitory Activity PKA: relative ratio to ROCKII (=1.0), based on IC50 values
T2 construct: Purified bovine PKA (catalyst subunit, Promega); purchased Promega
Method: Purified bovine PKA (catalyst subunit, Promega) was used to evaluate its activity to phosphorylate a substrate peptide (LRRASLG, Promega).
as §2, with “(43” for “(64”, “20” for “80”, “1 mg/mL” for “10 μM”, “BSA, 5” for “cGMP (Sigma), 100”
as §3, §1

Recombinant human Ab1 = biological target: T3, Recombinant human Ab1 (Homo sapiens, UniProt P00519); experiment: Abl kinase assay (Kinase-Glo ATP consumption); details: 1 μM ATP; read-out: Kinase Inhibiting Activity (IC50) Abl
T3 construct: from 27th to 1149th amino acids; purchased Upstate
T3 sequence (P00519 27-1149 isoform P00519-2): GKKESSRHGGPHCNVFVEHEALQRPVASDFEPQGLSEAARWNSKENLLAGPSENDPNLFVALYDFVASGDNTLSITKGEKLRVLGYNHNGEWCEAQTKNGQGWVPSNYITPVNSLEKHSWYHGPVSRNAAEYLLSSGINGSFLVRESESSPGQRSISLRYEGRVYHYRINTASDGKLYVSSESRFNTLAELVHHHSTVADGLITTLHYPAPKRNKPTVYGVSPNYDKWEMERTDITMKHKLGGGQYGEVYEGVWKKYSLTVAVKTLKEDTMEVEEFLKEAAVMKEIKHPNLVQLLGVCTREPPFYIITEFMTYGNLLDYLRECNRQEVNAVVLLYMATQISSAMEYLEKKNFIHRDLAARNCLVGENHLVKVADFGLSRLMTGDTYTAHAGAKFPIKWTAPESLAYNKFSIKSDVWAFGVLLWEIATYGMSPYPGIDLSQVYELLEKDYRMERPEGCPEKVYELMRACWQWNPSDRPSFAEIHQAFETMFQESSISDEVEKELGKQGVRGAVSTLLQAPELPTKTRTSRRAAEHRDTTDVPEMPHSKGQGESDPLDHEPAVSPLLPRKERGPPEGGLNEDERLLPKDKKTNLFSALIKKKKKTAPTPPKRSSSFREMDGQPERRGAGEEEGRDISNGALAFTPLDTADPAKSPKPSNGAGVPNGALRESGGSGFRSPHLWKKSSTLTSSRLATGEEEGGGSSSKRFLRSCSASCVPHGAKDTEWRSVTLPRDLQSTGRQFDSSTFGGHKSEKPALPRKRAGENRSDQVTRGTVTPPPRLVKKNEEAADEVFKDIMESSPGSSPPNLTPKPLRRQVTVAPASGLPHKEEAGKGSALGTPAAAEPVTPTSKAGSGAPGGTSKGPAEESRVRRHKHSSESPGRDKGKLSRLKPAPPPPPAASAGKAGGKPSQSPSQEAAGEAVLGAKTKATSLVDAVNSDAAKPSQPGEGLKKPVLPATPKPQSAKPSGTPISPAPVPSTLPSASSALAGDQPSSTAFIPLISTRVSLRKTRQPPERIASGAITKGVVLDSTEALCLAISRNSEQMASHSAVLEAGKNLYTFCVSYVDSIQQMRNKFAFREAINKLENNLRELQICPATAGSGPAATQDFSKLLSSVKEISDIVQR
Method: Recombinant human Ab1 (from 27th to 1149th amino acids, Upstate) was used to evaluate its activity to phosphorylate a substrate peptide (EAIYAAPFAKKK, Upstate).
as §2, with “(20” for “(64”, “50” for “40”, “10” for “20”, “50” for “10 μM of cGMP (Sigma), 100”
as §3

Purified chicken MLCK = biological target: T4, Purified chicken MLCK (Gallus gallus, UniProt P11799); experiment: MLCK kinase assay (Kinase-Glo ATP consumption); details: 1 μM ATP; read-out: Kinase Inhibiting Activity (IC50) MLCK
T4 construct: from tissue
Method: Purified chicken MLCK (purified by the method of M. Anne Conti, et al.: Method in Enzymol. 196, 34-47) was used to evaluate its activity to phosphorylate a substrate peptide (AKRPQRATSNVFS, Sigma).
as §2, with “(100” for “(64”, “20” for “40”, “5” for “20”, “0.2 mM” for “10 μM”, “calcium chloride, 0.02 mg/mL of BSA, 8 μg/mL of purified bovine brain calmodulin” for “cGMP”, “50” for “100”
as §3

Molecule	Realative Inhibitory Activity ROCKII (ROCKII (Rho-kinase))	IC50 (ROCKII (Rho-kinase)) [µM]	IC50 (Purified bovine PKGα) [µM]	Realative Inhibitory Activity PKG (Purified bovine PKGα)	IC50 [1] [µM]	Realative Inhibitory Activity PKA [1]	IC50 (Recombinant human Ab1) [µM]	IC50 (Purified chicken MLCK) [µM]
CNCC(=O)N1CCCN(S(=O)(=O)c2cccc3cncc(F)c23)[C@@H](C)C1.Cl.Cl [Example 2, 2-(S)-1-(4-fluoroisoquinoline-5-sulfonyl)-2-methyl-4-(N-methylglycyl)homopiperazine dihydrochloride]	1	0.029	28	933	> 100	>3000	> 100	> 100
2-(S)-1-(4-fluoroisoquinoline-5-sulfonyl)-4-glycyl-2-methylhomopiperazine dihydrochloride [Example 1]	1	0.0321	63.5	2117	> 100	>3000	> 100	> 100
